Earlier results on one compound are cited in paper PMC6453670 (International Journal for Parasitology: Drugs and Drug …, 2019).

One series has as its system Toxoplasma. The note with it: longer treatment duration; ref Winzer et al., 2015.
The test system of a further series is Neospora. The note with it: longer treatment duration; ref Ojo et al., 2014; Winzer et al., 2015.

Consider `CCOc1ccc2cc(-c3nn(CC4CCN(C)CC4)c4ncnc(N)c34)ccc2c1` [BKI 1294], for which the “Dose at which morphological alterations were seen in vitro” value in the series with Toxoplasma and with Neospora was 2.5 μM in each case.
